Earlier results in US20100008998A1, “SUBMICRON NANOPARTICLE OF POORLY WATER SOLUBLE CAMPTOTHECIN DERIVATIVES AND PROCESS FOR PREPARATION THEREOF” (SAMYANG CORPORATION, priority 2006, published 2010).
Like-named read-outs stand apart in the source and are kept apart here.

What was measured:
[1] = in the human body
topoisomerase I = biological target: T1, topoisomerase I (Homo sapiens, UniProt P11387)
T1 sequence (P11387 1-765): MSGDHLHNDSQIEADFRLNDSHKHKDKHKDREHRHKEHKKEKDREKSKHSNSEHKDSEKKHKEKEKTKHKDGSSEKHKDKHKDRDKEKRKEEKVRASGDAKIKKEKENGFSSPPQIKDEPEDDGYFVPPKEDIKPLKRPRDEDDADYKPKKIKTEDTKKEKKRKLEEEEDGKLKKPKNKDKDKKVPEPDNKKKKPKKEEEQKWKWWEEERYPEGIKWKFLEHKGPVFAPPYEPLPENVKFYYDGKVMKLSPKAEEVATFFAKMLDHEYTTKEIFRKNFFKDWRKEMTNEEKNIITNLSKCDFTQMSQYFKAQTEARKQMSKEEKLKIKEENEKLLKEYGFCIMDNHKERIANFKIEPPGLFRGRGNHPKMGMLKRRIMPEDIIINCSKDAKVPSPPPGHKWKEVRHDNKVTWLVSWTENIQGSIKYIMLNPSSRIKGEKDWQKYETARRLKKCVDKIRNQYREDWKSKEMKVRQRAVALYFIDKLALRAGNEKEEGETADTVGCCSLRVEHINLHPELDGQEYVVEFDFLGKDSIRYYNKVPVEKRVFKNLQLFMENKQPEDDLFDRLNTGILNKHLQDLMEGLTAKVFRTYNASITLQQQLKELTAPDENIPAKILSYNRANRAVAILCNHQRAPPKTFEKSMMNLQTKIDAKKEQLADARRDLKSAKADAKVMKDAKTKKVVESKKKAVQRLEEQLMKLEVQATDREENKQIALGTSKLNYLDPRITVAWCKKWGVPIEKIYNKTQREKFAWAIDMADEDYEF

[2] = not given; remark: listed apart in the source

Structure (SMILES)	conversion rate of CPT-11 into the active SN-38 [1] [%]	water solubility [µg/mL]	water solubility (active lactone form) [µg/mL]	can be dissolved in water in the amounts of (carboxy anion form) [mg/mL]	better in suppressing the activity of topoisomerase I compared to CPT-11 (topoisomerase I)	better in in vitro cytotoxicity compared to CPT-11 [2]
CCc1c2c(nc3ccc(OC(=O)N4CCC(N5CCCCC5)CC4)cc13)-c1cc3c(c(=O)n1C2)COC(=O)[C@]3(O)CC [CPT-11]	≤ 10	–	–	–	–	–
CCc1c2c(nc3ccc(O)cc13)-c1cc3c(c(=O)n1C2)COC(=O)[C@]3(O)CC [SN-38, 7-Ethyl-10-hydroxycamptothecin]	–	≤ 10	≤ 10	≥ 4	≥ 1,000 times	≥ 2,000 times
